Experimental data as given in US9885727B2, “Cell culture models for validating candidate compounds for use in treating COPD and other diseases” (THE TRUSTEES OF COLUMBIA UNIVERSITY IN THE CITY OF NEW YORK, priority 2010, dated 2018).

What was measured:
[1] = Stability of DES and IDS on acid hydrolysis (6N HCl, 110° C., 24 hrs), LC/MSMS; conditions: for Recovered, mean: 6N HCl at 110° C. for 24 hour; for stability through acid hydrolysis: 10, 5 and 1 ng/ml, HCl hydrolysis at 110° C. for 24 hrs
Protocol: The assay of total DES and IDS in biological fluids requires HCl hydrolysis at 110° C. to release DES and IDS from their crosslinked or peptide conjugates. We examined the stability of DES and IDS in three different concentrations (10, 5, and 1 ng/ml) during HCl hydrolysis at 110° C. for 24 hrs. The DES/IDS solutions resulting from the HCl treatment were subjected to LC/MSMS measurements of DES and IDS, which were compared with the measurements of the same concentrations of untreated DES and IDS to calculate the recovery by the acid treatment.

[2] = test system: COPD patients; experiment: Spirometry in post-TIO therapy patients; format: in vivo, human; conditions: most post-TIO therapy patients
From the text: The improvement in spirometric indices were usually concordant with levels of D/I in patients.

[3] = test system: COPD patients; experiment: Tiotropium treatment of COPD patients: D/I in plasma, urine and sputum by LC/MS; format: in vivo, human
Protocol: COPD patients have elevated levels of D/I in plasma, urine and sputum, which might respond to prolonged bronchodilation. To determine if clinical effects of Tiotropium (TIO) affect tissue degradation of the lung in COPD, clinically stable patients with COPD (n=9) not on TIO prior to the study and at one month and a second month after initiating therapy were tested. Other anticholinergic bronchodilators were stopped prior to TIO, and other therapies/disease treatments were unchanged for the two months of study. To these patients, 18 mcg TIO was administered each 24 hours. D/I in plasma, urine and sputum were measured by liquid chromatography and mass spectrometry (LC/MS) prior to the study and at one month and two months after the study.

[4] = test system: pro-MMP1 and pro-MMP3; conditions: cited from earlier work
[5] = test system: neutrophils and macrophages; conditions: cited from earlier work
[6] = test system: smoke-induced elastic fiber injury; conditions: concurrent administration, within 3 months of smoke exposure; cited from earlier work
[7] = test system: smoke-induced elastic fiber injury; experiment: Mouse model of smoke-induced pulmonary emphysema: DID in BALF and whole lungs; format: in vivo, DBA/2J mice
Protocol: (§1) Eight-week-old female DBA/2J mice (The Jackson Laboratory, Bar Harbor, Me.) were divided into two treatment groups as follows: Group 1 was treated with aerosolized HA, beginning 1 month following initiation of smoke exposure; Group 2 was treated with aerosolized water, beginning 1 month following initiation of smoke exposure. Groups 1 and 2 were exposed to smoke for 3 h per day, 5 days/week, for a period of 10 months. Group 1 was treated with a 0.1% solution of HA in water for 1 h prior to each smoking session. Group 2 received aerosolized water for a similar interval. At various intervals following initial smoke exposure, animals were euthanized to determine (1) DID content in bronchoalveolar lavage fluid (BALF) and whole lungs at 2, 4, 6, 8, and 10 months; (2) lung histopathology at 3, 6, and 10 months; and (3) airspace enlargement as measured by the mean linear intercept (MLI) at 3 months.
Following administration of either aerosolized HA or water, the nebulizer was disconnected and the smoking machine (Model TE-10, Teague Enterprises, Davis, Calif.) was attached to the exposure chamber. Both treatment groups were exposed to cigarette smoke for a period of 3 h/day, 5 days/week. The smoking machine simultaneously burned two filtered research-grade cigarettes (type 2R4F, University of Kentucky). Each cigarette was puffed once per minute for 2 s at a flow rate of 1.05 LPM, yielding 35 cc of smoke. This cycle was repeated nine times before ejecting the cigarette and loading a new one. Proper flow rate was maintained by a vacuum pump that established negative pressure at the exhaust port.
Beginning 1 month following initial smoke exposure, Group 1 was administered a 0.1% solution of low-molecular-weight (150 kDa) streptococcal HA in water (Bayer, Shawnee, Kans.), using a Misty-Ox nebulizer (Vital Signs, Totowa, N.J.). Group 2 received aerosolized water alone. The nebulizer was connected to a heavy-duty air compressor that delivered a constant pressure of 30 psi. The aerosol entered the exposure chamber through an inflow port attached to the roof and was drawn through the chamber by negative pressure created by a vacuum pump connected to an exhaust port on the side wall. The chamber was large enough (28×19×15 in.) to permit the mice to remain in their cages while inhaling the aerosol, thereby minimizing direct handling of the animals.
The levels of the elastin-specific crosslinking amino acids, DID, were measured in both BALF and whole-lung tissues. Animals were asphyxiated with CO2 and their lungs were lavaged three times with 1-ml aliquots of Hanks' solution. Both cell-free lavage fluids and homogenized lung tissues were then hydrolyzed in 6 N HCl at 110° C. for 24 h, and the hydrolysates were filtered and evaporated to remove acid. DID were quantified by high-performance liquid chromatography and electrospray ionization mass spectrometry according to previously published procedures^11.

[8] = test system: elastase-induced airspace enlargement; conditions: aerosol of 0.1% HA in water for 50 min prior to elastase; cited from earlier work
[9] = test system: smoke-induced airspace enlargement; format: in vivo, DBA/2J mice
Protocol: as §1, with “3 months. […]” for “3 months.”
At 3, 6, and 10 months following initiation of smoke exposure, mice were asphyxiated with CO2 and their lungs were inflated in situ with 10% neutral-buffered formalin at a constant pressure of 20 cm H2O. […] Slide sections stained with hematoxylin and eosin were examined with the light microscope to determine histological changes and to quantify airspace diameter by the mean linear intercept method^16. […]

[10] = test system: elastases, including human metalloproteinase 12; conditions: cited from earlier work
[11] = COPD patients, 18 mcg TIO each 24 hours, up to two months

With `NC(CCCC[n+]1cc(CCC(N)C(=O)O)c(CCCC(N)C(=O)O)c(CCC(N)C(=O)O)c1)C(=O)O` (stereo not drawn) [DES, Desmosine] the “Recovered, mean” value ([1]; 1 ng/ml DES/IDS) was 0.50 ng/mL, the “Recovered, mean” value ([1]; 5 ng/ml DES/IDS) was 2.42 ng/mL and the “Recovered, mean” value ([1]; 10 ng/ml DES/IDS) was 5.04 ng/mL. The “stability through acid hydrolysis” value [1] was “stable through acid hydrolysis”.

For `NC(CCCC[n+]1cc(CCC(N)C(=O)O)cc(CCC(N)C(=O)O)c1CCCC(N)C(=O)O)C(=O)O` (stereo not drawn) [IDS, Isodesmosine], the “Recovered, mean” value ([1]; 1 ng/ml DES/IDS) was 0.48 ng/mL, the “Recovered, mean” value ([1]; 5 ng/ml DES/IDS) was 2.55 ng/mL and the “Recovered, mean” value ([1]; 10 ng/ml DES/IDS) was 5.37 ng/mL. For the same compound, the “stability through acid hydrolysis” value [1] was “stable through acid hydrolysis”.

In the case of `C[N+]1(C)[C@@H]2C[C@@H](OC(=O)C(O)(c3cccs3)c3cccs3)C[C@H]1[C@@H]1O[C@@H]12` [TIO, Tiotropium], the “FVC, FEV1 and ratio of FEV1/FVC” value [2] was “significant increase”, the “Residual Volume (RV)” value [2] was “decreases” and the “patients with significant decrease in D/I levels in plasma” value [3, 11] was 10 out of 12. For the same compound, the “patients with significant decrease in D/I levels in sputum” value [3, 11] was “all 12 patients”, the “patients with significant decrease in D/I levels in urine” value [3, 11] was 10 out of 12 and the “D/I levels in plasma, urine and sputum” value ([3]; two months of treatment with TIO) was “significant reductions”.

In the case of “VGVAPG (Human) [elastin-derived hexapeptide isolated from ligamentum nuchae or aorta by porcine pancreatic elastase]”, the “pro-MMP1 and pro-MMP3 upregulation” value [4] is given as “induce pro-MMP1 and pro-MMP3 upregulation” and the chemoattractant activity [5] is given as “chemoattractants for neutrophils and macrophages”.

For hyaluronan [HA], the “BALF DID levels” value [6] is listed as “significantly reduced”, the “difference in BALF DID, HA/Smoke vs Smoke-Only” value ([7]; 2 and 4 months of smoke exposure) is listed as “not statistically significant” and the “BALF DID, level before the drop” value ([7]; HA/Smoke group, 0.1% aerosolized HA begun 1 month after start of smoke) is listed as 0.8 ng/mL. For the same compound, the “BALF DID, level after the drop” value ([7]; HA/Smoke group, after 4 months of smoke exposure) was “less than 1 pg/ml”, the “BALF DID, HA-treated vs Smoke-Only” value ([7]; subsequent measurements (after 4 months)) was “significantly lower levels” and the “difference in lung DID, HA/Smoke vs Smoke-Only” value ([7]; whole lungs, 10-month period) was “not statistically significant”. For the same compound, the “airspace enlargement vs aerosolized water and elastase” value [8] was “significantly less airspace enlargement”, the “mean linear intercept (MLI)” value ([9]; 3 months of smoke, HA treated for 2 months, smoke alone 58.4 μm, p<0.01) was 42.6 μm and the “inflammatory response beyond that induced by smoke exposure” value ([9]; mouse, in vivo) was “no evidence of an inflammatory response”. The “direct inhibition of elastases” value [10] was “does not directly inhibit elastases” and the “elastolysis of elastic fibers with bound HA” value ([10]; in vitro, several types of elastase including human metalloproteinase 12) was “prevented elastolysis”.
